From ChEMBL document CHEMBL1124950, “Synthesis and cardiotonic activity of novel biimidazoles” (J Med Chem, 1990)
Blank lines part the entries; values can stand above or below the compound they belong to. Calls of active or inactive are those of the source. No cut-off for these calls is given here.

Tests used:
Canis familiaris [1] = experiment: Inotropic effect in anesthetized dog; assay type: functional; conditions: Canis lupus familiaris
Phosphodiesterase 4 [2] = biological target: T1, Phosphodiesterase 4 (Homo sapiens, UniProt P27815+Q08499+Q07343+Q08493); experiment: Inhibition of canine kidney Phosphodiesterase 4 at 150 uM; conditions: Canis lupus familiaris, target entry is the homologue from another species
Canis familiaris [3] = experiment: Peak percent change in contractile force produced by the administration of 1 mg/kg intravenously in anesthetized dog; assay type: functional, Canis lupus familiaris; conditions: route intravenous
Rattus norvegicus [4] = experiment: 25% increase in left ventricular contractility (dP/dtmax) on iv administration in anesthetized rat; assay type: functional; conditions: Heart left ventricle
Rattus norvegicus [5] = experiment: 25% increase in left ventricular contractility (dP/dtmax) on iv administration in anesthetized rat; not active; assay type: functional, organism-based; conditions: Heart left ventricle
Canis familiaris [6] = experiment: 25% increase in left ventricular contractility (dP/dtmax) in anesthetized dog on iv administration; assay type: functional; conditions: Canis lupus familiaris, Heart left ventricle
Rattus norvegicus [7] = experiment: Peak percent change in contractile force produced by the administration of 1 mg/kg intravenously in ansthetetized rat; assay type: functional; conditions: route intravenous
Canis familiaris [8] = experiment: Increased heart rate in conscious dogs on oral administration at 10 mg/kg; assay type: functional, Canis lupus familiaris
Phosphodiesterase 4 [9] = biological target: T1, Phosphodiesterase 4; experiment: Inhibition of canine heart Phosphodiesterase 4; assay type: protein assay, Canis lupus familiaris; conditions: target entry is the homologue from another species
Canis familiaris [10] = experiment: Inotropic activity in anesthetized dog; assay type: functional; conditions: Canis lupus familiaris
Phosphodiesterase 4 [11] = biological target: T1, Phosphodiesterase 4; experiment: (§1) Inhibition of canine kidney Phosphodiesterase 4; assay type: protein assay, Canis lupus familiaris; conditions: target entry is the homologue from another species
Canis familiaris [12] = experiment: Peak percent change in contractile force produced after iv administration at 1 mg/kg in anesthetized dog
Rattus norvegicus [13] = experiment: 25% increase in left ventricular (dP/dtmax) after iv administration in anesthetized rat; Not active at 3 mg/kg; assay type: functional, organism-based; design: dose 3 mg/kg; conditions: Heart left ventricle
Canis familiaris [14] = experiment: Peak percent change in contractile force produced by the administration of 1 mg/kg intravenously in anesthetized dog; not active; assay type: functional, organism-based; design: dose 1 mg/kg; conditions: Canis lupus familiaris; at 1 mg/kg
Canis familiaris [15] = experiment: Peak percent change in contractile force produced after iv administration at 0.3 mg/kg in anesthetized dog; assay type: functional, Canis lupus familiaris
Canis familiaris [16] = experiment: Peak percent change in contractile force produced after iv administration at 0.3 mg/kg in ansthetetized dog; assay type: functional, Canis lupus familiaris
Canis familiaris [17] = experiment: Peak percent change in contractile force produced by 1 mg/kg administered intravenously in anesthetized dog; assay type: functional, Canis lupus familiaris; conditions: route intravenous
Canis familiaris [18] = experiment: 25% increase in left ventricular contractility (dP/dtmax) after iv administration in anesthetized dog; Not active; assay type: functional; conditions: Canis lupus familiaris, Heart left ventricle
Rattus norvegicus [19] = experiment: 25% increase in left ventricular contractility (dP/dtmax) on iv administration in anesthetized rat; Not active at 3 mg/kg; assay type: functional, organism-based; design: dose 3 mg/kg; conditions: Heart left ventricle
Rattus norvegicus [20] = experiment: 25% increase in left ventricular contractility (dP/dtmax) after iv administration in anesthetized rat; assay type: functional; conditions: Heart left ventricle
Canis familiaris [21] = experiment: Peak percent change in contractile force produced by the administration of 1 mg/kg intravenously in anesthetized dog; Not active; conditions: Canis lupus familiaris
Canis familiaris [22] = experiment: 25% increase in left ventricular contractility (dP/dtmax) on iv administration in anesthetized dog; assay type: functional; conditions: Canis lupus familiaris, Heart left ventricle
Canis lupus familiaris = experiment: 25% increase in left ventricular contractility (dP/dtmax) after iv administration in anesthetized dog; conditions: Heart left ventricle
Rattus norvegicus [23] = experiment: 25% increase in left ventricular contractility (dP/dtmax) on iv administration in anesthetized rat; Not active; assay type: functional, organism-based; conditions: Heart left ventricle
Phosphodiesterase 4 [24] = biological target: T1, Phosphodiesterase 4; experiment: as §1; assay type: protein assay; conditions: Canis lupus familiaris; target entry is the homologue from another species; concentration not given here

inhibition (Phosphodiesterase 4 [2]): 34%
Structure (SMILES): CSc1ccc(C(=O)c2[nH]c(=O)[nH]c2C)cc1 [ENOXIMONE]
ED25 (Canis familiaris [1]): 0.46 mg/kg | Change (Canis familiaris [3]): 73% | ED25 (Rattus norvegicus [4]): 1.4 mg/kg

Structure (SMILES): Cc1c[nH]c(-c2ncc[nH]2)n1
ED25 (Rattus norvegicus [5]): inactive

Structure (SMILES): N#Cc1c[nH]c(-c2nc(C(F)(F)F)c[nH]2)n1
ED25 (Canis familiaris [6]): 0.33 mg/kg

Structure (SMILES): N#Cc1c[nH]c(-c2cccs2)n1
ED25 (Rattus norvegicus [5]): inactive

Structure (SMILES): c1c[nH]c(-c2nc(-c3nn[nH]n3)c[nH]2)n1
Change (Canis familiaris [3]): 0% | ED25 (Rattus norvegicus [5]): inactive

Structure (SMILES): Cn1ccnc1-c1nc(C#N)c[nH]1
Change (Canis familiaris [3]): 29%

Structure (SMILES): Cn1c(C#N)cnc1-c1ncc[nH]1
Change (Canis familiaris [3]): 3%

Structure (SMILES): CSc1c[nH]c(-c2ncc[nH]2)n1
Change (Canis familiaris [3]): 4%

Structure (SMILES): Cn1ccnc1-c1ncc(C#N)n1C
Change (Rattus norvegicus [7]): 13%

Structure (SMILES): C[S+]([O-])c1c[nH]c(-c2ncc[nH]2)n1 (configuration not stated)
Change (Canis familiaris [3]): 1%

Structure (SMILES): N#Cc1c[nH]c(-c2ccc(-n3ccnc3)cc2)n1
Change (Canis familiaris [3]): 17%

Structure (SMILES): N#Cc1c[nH]c(-c2nccn2Cc2ccccc2)n1
Change (Canis familiaris [3]): 2%

IC50 (Phosphodiesterase 4 [9]): 36.7 µM | IC50 (Phosphodiesterase 4 [11]): 339 µM
Structure (SMILES): N#Cc1c[nH]c(-c2ncc[nH]2)n1
Increase in heart rate (Canis familiaris [8]): 45 beats min-1 | ED25 (Canis familiaris [10]): 0.16 mg/kg | Change (Canis familiaris [12]): 60%

Structure (SMILES): Clc1c[nH]c(-c2ncc[nH]2)n1
ED25 (Rattus norvegicus [13]): inactive

Structure (SMILES): N#Cc1c[nH]c(-c2cccnc2)n1
Change (Canis familiaris [3]): 31% | ED25 (Rattus norvegicus [5]): inactive

Structure (SMILES): N#Cc1c[nH]c(-c2cn[nH]c2)n1
Change (Canis familiaris [14]): inactive | ED25 (Rattus norvegicus [5]): inactive

Structure (SMILES): C[C@@H]1C(=O)NC2=Nc3cccc(Cl)c3CN21 [QUAZINONE]
Change (Canis familiaris [15]): 47%

Structure (SMILES): N#Cc1c[nH]c(-c2c[nH]cn2)n1
Change (Canis familiaris [3]): 25%

Structure (SMILES): N#Cc1c[nH]c(-c2ccc(Br)s2)n1
ED25 (Rattus norvegicus [5]): inactive

Structure (SMILES): Cc1[nH]c(=O)c(C#N)cc1-c1ccncc1 [MILRINONE]
ED25 (Canis familiaris [1]): 0.06 mg/kg | Change (Canis familiaris [3]): 52% | Change (Canis familiaris [16]): 110% | ED25 (Rattus norvegicus [4]): 0.3 mg/kg

Structure (SMILES): N#Cc1c[nH]c(-c2nc(Br)c(Br)[nH]2)n1
Change (Canis familiaris [17]): 96%

Structure (SMILES): Cc1c[nH]c(-c2nc(C#N)c[nH]2)n1
ED25 (Canis familiaris [18]): 0.63 mg/kg

Structure (SMILES): N#Cc1c[nH]c(-c2cc[nH]n2)n1
Change (Canis familiaris [3]): -4% | ED25 (Rattus norvegicus [5]): inactive

Structure (SMILES): COc1ccc(-c2c[nH]c(-c3nc(C#N)c[nH]3)n2)cc1
ED25 (Canis familiaris [6]): 0.36 mg/kg | Change (Canis familiaris [3]): 106%

Structure (SMILES): Cn1c(Cl)cnc1-c1nc(C#N)c[nH]1
Change (Canis familiaris [3]): 11%

Structure (SMILES): C[Si](C)(C)CCOCn1ccnc1-c1nccn1COCC[Si](C)(C)C
ED25 (Rattus norvegicus [19]): inactive

Structure (SMILES): Cn1cc(C#N)nc1-c1ncc[nH]1
ED25 (Canis familiaris [6]): 0.17 mg/kg

Structure (SMILES): Clc1c[nH]c(-c2nc(Cl)c[nH]2)n1
ED25 (Rattus norvegicus [20]): 0.7 mg/kg

Structure (SMILES): CCn1ccnc1-c1nc(C#N)c[nH]1
Change (Canis familiaris [3]): 41%

Structure (SMILES): Brc1c[nH]c(-c2nc(Br)c[nH]2)n1
ED25 (Rattus norvegicus [13]): inactive

Structure (SMILES): O=C(O)c1c[nH]c(-c2ncc[nH]2)n1
ED25 (Rattus norvegicus [5]): inactive

Structure (SMILES): CN(C)Cc1ccc(-c2nc(C#N)c[nH]2)o1
Change (Canis familiaris [21]): inactive

Structure (SMILES): N#Cc1c[nH]c(-c2nc(-c3ccccc3)c[nH]2)n1
ED25 (Canis familiaris [22]): 0.89 mg/kg

Structure (SMILES): O=Cc1c[nH]c(-c2nc(C=O)c[nH]2)n1
ED25 (Rattus norvegicus [13]): inactive

Structure (SMILES): C=Cn1ccnc1-c1nc(C#N)c[nH]1
Change (Canis familiaris [3]): 41%

Structure (SMILES): COC(=O)c1c[nH]c(-c2ncc[nH]2)n1
ED25 (Rattus norvegicus [5]): inactive

Structure (SMILES): N#Cc1c[nH]c(-c2ccc(-c3nc(C#N)c[nH]3)cc2)n1
Change (Canis familiaris [3]): 8%

Structure (SMILES): N#Cc1c[nH]c(-c2nc(Cl)c[nH]2)n1
Change (Canis familiaris [17]): 95%

Structure (SMILES): FC(F)(F)c1c[nH]c(-c2c[nH]cn2)n1
Change (Canis familiaris [3]): 0%

Structure (SMILES): N#Cc1c[nH]c(-c2nc(Br)c[nH]2)n1
ED25 (Canis lupus familiaris): 0.2 mg/kg

Structure (SMILES): N#Cc1c[nH]c(-c2nc(-c3ccc(C(F)(F)F)cc3)c[nH]2)n1
ED25 (Canis familiaris [6]): 0.26 mg/kg

Structure (SMILES): N#Cc1c[nH]c(-c2nc(C#N)c[nH]2)n1
ED25 (Canis familiaris [6]): 0.18 mg/kg

Structure (SMILES): Brc1c[nH]c(-c2ncc[nH]2)n1
ED25 (Rattus norvegicus [20]): 5.5 mg/kg

Structure (SMILES): N#Cc1[nH]cnc1-c1ncc[nH]1
Change (Canis familiaris [3]): 0%

Structure (SMILES): c1c[nH]c(-c2ncc[nH]2)n1
ED25 (Rattus norvegicus [4]): 0.24 mg/kg

Structure (SMILES): FC(F)(F)c1c[nH]c(-c2ncc[nH]2)n1
ED25 (Rattus norvegicus [23]): inactive

Structure (SMILES): OCc1c[nH]c(-c2ncc[nH]2)n1
Change (Canis familiaris [3]): 0%

Structure (SMILES): NC(=O)c1c[nH]c(-c2ncc[nH]2)n1
ED25 (Rattus norvegicus [5]): inactive

Structure (SMILES): N#Cc1c[nH]c(-c2ccco2)n1
ED25 (Rattus norvegicus [5]): inactive

Structure (SMILES): N#Cc1c[nH]c(-c2csc(NC(=N)N)n2)n1
Change (Canis familiaris [21]): inactive

Structure (SMILES): N#Cc1c[nH]c(-c2nccn2-c2ccccc2)n1
Change (Canis familiaris [3]): 0%

Structure (SMILES): Cc1ccsc1-c1nc(C#N)c[nH]1
ED25 (Rattus norvegicus [5]): inactive

Structure (SMILES): FC(F)(F)c1c[nH]c(-c2nc(Br)c[nH]2)n1
ED25 (Rattus norvegicus [13]): inactive

Structure (SMILES): NCc1c[nH]c(-c2ncc[nH]2)n1
ED25 (Rattus norvegicus [5]): inactive

Structure (SMILES): O=Cc1c[nH]c(-c2ncc[nH]2)n1
ED25 (Rattus norvegicus [13]): inactive

inhibition (Phosphodiesterase 4 [24]): 24%
Structure (SMILES): Nc1cc(-c2ccncc2)c[nH]c1=O [INAMRINONE]
Change (Canis familiaris [16]): 19%
